What was measured:
MDA-MB-468 [1] = experiment: Anticancer activity against human MDA-MB-468 cells assessed as inhibition of cell growth incubated for 48 hrs by SRB assay; format: functional; conditions: for CC50: read-out: LC50 (the source's name)
MCF7 [2] = experiment: Anticancer activity against human MCF7 cells assessed as inhibition of cell growth incubated for 48 hrs by SRB assay; format: functional; conditions: for CC50: read-out: LC50 (the source's name)
MDA-MB-435 [3] = experiment: Anticancer activity against human MDA-MB-435 cells assessed as inhibition of cell growth incubated for 48 hrs by SRB assay; format: functional
NCI-H226 [4] = experiment: Anticancer activity against human NCI-H226 cells assessed as inhibition of cell growth incubated for 48 hrs by SRB assay; format: functional
Cytochrome P450 1A1 [5] = biological target: T1, Cytochrome P450 1A1 (Homo sapiens, UniProt P04798); experiment: Inhibition of recombinant CYP1A1 (unknown origin) assessed as decrease in EROD activity using 7-ethoxyresorufin as substrate incubated for 15 mins by resorufin dye based spectrofluorimetry; format: ADME
T1 sequence (P04798 whole entry): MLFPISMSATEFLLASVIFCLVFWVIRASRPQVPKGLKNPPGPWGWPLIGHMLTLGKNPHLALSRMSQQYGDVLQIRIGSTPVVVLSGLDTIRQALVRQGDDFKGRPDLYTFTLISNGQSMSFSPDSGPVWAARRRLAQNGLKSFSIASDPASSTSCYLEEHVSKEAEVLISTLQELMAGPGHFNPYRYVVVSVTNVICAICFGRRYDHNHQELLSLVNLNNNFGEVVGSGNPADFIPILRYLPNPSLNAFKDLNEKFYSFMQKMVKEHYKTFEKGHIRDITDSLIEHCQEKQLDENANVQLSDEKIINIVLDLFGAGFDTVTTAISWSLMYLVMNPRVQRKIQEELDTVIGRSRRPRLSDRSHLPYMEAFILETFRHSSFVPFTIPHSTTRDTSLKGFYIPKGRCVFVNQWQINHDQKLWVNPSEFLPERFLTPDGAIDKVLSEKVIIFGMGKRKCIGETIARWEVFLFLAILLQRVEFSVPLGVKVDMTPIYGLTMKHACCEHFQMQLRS

MDA-MB-468 [6] = experiment: Anticancer activity against human MDA-MB-468 cells assessed as cell growth at 0.1 uM incubated for 48 hrs by SRB assay; format: functional; conditions: read-out: Activity
MDA-MB-468 [7] = experiment: Anticancer activity against human MDA-MB-468 cells assessed as cell growth at 1 uM incubated for 48 hrs by SRB assay; format: functional; conditions: read-out: Activity
MDA-MB-468 [8] = experiment: Anticancer activity against human MDA-MB-468 cells assessed as cell growth at 10 uM incubated for 48 hrs by SRB assay; format: functional; conditions: read-out: Activity
MDA-MB-468 [9] = experiment: Anticancer activity against human MDA-MB-468 cells assessed as cell growth at 100 uM incubated for 48 hrs by SRB assay; format: functional; conditions: read-out: Activity
MCF7 [10] = experiment: Anticancer activity against human MCF7 cells assessed as cell growth at 0.1 uM incubated for 48 hrs by SRB assay; format: functional; conditions: read-out: Activity
MCF7 [11] = experiment: Anticancer activity against human MCF7 cells assessed as cell growth at 1 uM incubated for 48 hrs by SRB assay; format: functional; conditions: read-out: Activity
MCF7 [12] = experiment: Anticancer activity against human MCF7 cells assessed as cell growth at 10 uM incubated for 48 hrs by SRB assay; format: functional; conditions: read-out: Activity
MCF7 [13] = experiment: Anticancer activity against human MCF7 cells assessed as cell growth at 100 uM incubated for 48 hrs by SRB assay; format: functional; conditions: read-out: Activity
NCI-H226 [14] = experiment: Anticancer activity against human NCI-H226 cells assessed as cell growth at 0.1 uM incubated for 48 hrs by SRB assay; format: functional; conditions: read-out: Activity
NCI-H226 [15] = experiment: Anticancer activity against human NCI-H226 cells assessed as cell growth at 1 uM incubated for 48 hrs by SRB assay; format: functional; conditions: read-out: Activity
NCI-H226 [16] = experiment: Anticancer activity against human NCI-H226 cells assessed as cell growth at 10 uM incubated for 48 hrs by SRB assay; format: functional; conditions: read-out: Activity
NCI-H226 [17] = experiment: Anticancer activity against human NCI-H226 cells assessed as cell growth at 100 uM incubated for 48 hrs by SRB assay; format: functional; conditions: read-out: Activity
MDA-MB-435 [18] = experiment: Anticancer activity against human MDA-MB-435 cells assessed as cell growth at 0.1 uM incubated for 48 hrs by SRB assay; format: functional; conditions: read-out: Activity
MDA-MB-435 [19] = experiment: Anticancer activity against human MDA-MB-435 cells assessed as cell growth at 1 uM incubated for 48 hrs by SRB assay; format: functional; conditions: read-out: Activity
MDA-MB-435 [20] = experiment: Anticancer activity against human MDA-MB-435 cells assessed as cell growth at 10 uM incubated for 48 hrs by SRB assay; format: functional; conditions: read-out: Activity
MDA-MB-435 [21] = experiment: Anticancer activity against human MDA-MB-435 cells assessed as cell growth at 100 uM incubated for 48 hrs by SRB assay; format: functional; conditions: read-out: Activity
CYP1A1 [22] = biological target: T2, CYP1A1 (Homo sapiens, UniProt P04798); experiment: Inhibition of recombinant CYP1A1 (unknown origin) assessed as residual enzyme activity using 7-ethoxyresorufin as substrate at 0.01 uM incubated for 15 mins by resorufin dye based spectrofluorimetry (reference value: 100%); format: ADME; conditions: recombinant CYP1A1, probe 7-ethoxyresorufin, read-out: Activity
T2 sequence (P04798 whole entry): T1 sequence (P04798 whole entry)

CYP1A1 [23] = biological target: T2, CYP1A1; experiment: Inhibition of recombinant CYP1A1 (unknown origin) assessed as residual enzyme activity using 7-ethoxyresorufin as substrate at 0.1 uM incubated for 15 mins by resorufin dye based spectrofluorimetry (reference value: 100%); format: ADME; conditions: recombinant CYP1A1, probe 7-ethoxyresorufin, read-out: Activity
CYP1A1 [24] = biological target: T2, CYP1A1; experiment: Inhibition of recombinant CYP1A1 (unknown origin) assessed as residual enzyme activity using 7-ethoxyresorufin as substrate at 1 uM incubated for 15 mins by resorufin dye based spectrofluorimetry (reference value: 100%); format: ADME; conditions: recombinant CYP1A1, probe 7-ethoxyresorufin, read-out: Activity
CYP1A1 [25] = biological target: T2, CYP1A1; experiment: Inhibition of recombinant CYP1A1 (unknown origin) assessed as residual enzyme activity using 7-ethoxyresorufin as substrate at 10 uM incubated for 15 mins by resorufin dye based spectrofluorimetry (reference value: 100%); format: ADME; conditions: recombinant CYP1A1, probe 7-ethoxyresorufin, read-out: Activity
CYP1A1 [26] = biological target: T2, CYP1A1; experiment: Inhibition of recombinant CYP1A1 (unknown origin) assessed as residual enzyme activity using 7-ethoxyresorufin as substrate at 50 uM incubated for 15 mins by resorufin dye based spectrofluorimetry (reference value: 100%); format: ADME; conditions: recombinant CYP1A1, probe 7-ethoxyresorufin, read-out: Activity
CYP1A1 [27] = biological target: T2, CYP1A1; experiment: Inhibition of recombinant CYP1A1 (unknown origin) assessed as residual enzyme activity using 7-ethoxyresorufin as substrate at 100 uM incubated for 15 mins by resorufin dye based spectrofluorimetry (reference value: 100%); format: ADME; conditions: recombinant CYP1A1, probe 7-ethoxyresorufin, read-out: Activity
Cytochrome P450 1A1 [28] = biological target: T1, Cytochrome P450 1A1; experiment: Inhibition of recombinant CYP1A1 (unknown origin) assessed as decrease in EROD activity using 7-ethoxyresorufin as substrate upto 100 uM incubated for 15 mins by resorufin dye based spectrofluorimetry; format: ADME; conditions: recombinant enzyme, 0.25 h

SMILES	GI50 (MDA-MB-468 [1]) [µM]	TGI (MDA-MB-468 [1]) [µM]	CC50 (MDA-MB-468 [1]) [µM]	GI50 (MCF7 [2]) [µM]	TGI (MCF7 [2]) [µM]	CC50 (MCF7 [2]) [µM]	GI50 (MDA-MB-435 [3]) [µM]	LC50 (MDA-MB-435 [3]) [µM]	TGI (MDA-MB-435 [3]) [µM]	GI50 (NCI-H226 [4]) [µM]	LC50 (concentration killing 50% of cells) (NCI-H226 [4]) [µM]	TGI (NCI-H226 [4]) [µM]	growth at 0.1 µM (MDA-MB-468 [6]) [%]	growth at 1 µM (MDA-MB-468 [7]) [%]	growth at 10 µM (MDA-MB-468 [8]) [%]	growth at 100 µM (MDA-MB-468 [9]) [%]	growth at 0.1 µM (MCF7 [10]) [%]	growth at 1 µM (MCF7 [11]) [%]	growth at 10 µM (MCF7 [12]) [%]	growth at 100 µM (MCF7 [13]) [%]	also measured
Cc1ccc(-c2cc3cc(F)ccc3[nH]2)cc1N	> 100	> 100	> 100	> 100	> 100	> 100	< 0.1	> 100	> 100	> 100	> 100	> 100	100	100	99.8	96.8	100	73.1	70.9	67.1	IC50 (Cytochrome P450 1A1 [5]): 0.13 µM; growth at 0.1 µM (NCI-H226 [14]): 100%; growth at 1 µM (NCI-H226 [15]): 100%; growth at 10 µM (NCI-H226 [16]): 98.9%; growth at 100 µM (NCI-H226 [17]): 90%; growth at 0.1 µM (MDA-MB-435 [18]): 47.8%; growth at 1 µM (MDA-MB-435 [19]): 40%; growth at 10 µM (MDA-MB-435 [20]): 30.6%; growth at 100 µM (MDA-MB-435 [21]): 23.1%; activity at 0.25 h, 0.01 µM (CYP1A1 [22]): 96.8%; activity at 0.25 h, 0.1 µM (CYP1A1 [23]): 52.6%; activity at 0.25 h, 1 µM (CYP1A1 [24]): 35.3%; activity at 0.25 h, 10 µM (CYP1A1 [25]): 12.8%; activity at 0.25 h, 50 µM (CYP1A1 [26]): 10.6%; activity at 0.25 h, 100 µM (CYP1A1 [27]): 8.54%
C[C@H](Oc1ccc(Cl)cc1)C(=O)Nc1sc2c(c1C(N)=O)CCCC2	> 100	> 100	> 100	56.3	> 100	> 100	> 100	> 100	> 100	> 100	> 100	> 100	100	100	78.7	65.5	81.5	76.3	71.7	27.2	growth at 0.1 µM (NCI-H226 [14]): 80.9%; growth at 1 µM (NCI-H226 [15]): 72.9%; growth at 10 µM (NCI-H226 [16]): 68.1%; growth at 100 µM (NCI-H226 [17]): 61.9%; growth at 0.1 µM (MDA-MB-435 [18]): 100%; growth at 1 µM (MDA-MB-435 [19]): 100%; growth at 10 µM (MDA-MB-435 [20]): 100%; growth at 100 µM (MDA-MB-435 [21]): 86.9%; activity at 0.25 h, 0.01 µM (CYP1A1 [22]): 100%; activity at 0.25 h, 0.1 µM (CYP1A1 [23]): 97.7%; activity at 0.25 h, 1 µM (CYP1A1 [24]): 97.2%; activity at 0.25 h, 10 µM (CYP1A1 [25]): 98.2%; activity at 0.25 h, 50 µM (CYP1A1 [26]): 97.4%; activity at 0.25 h, 100 µM (CYP1A1 [27]): 102%; inhibition (INH) (Cytochrome P450 1A1 [28]): Not Active
Cc1nn(C[C@@H](O)COc2ccc3c(C)cc(=O)oc3c2)c(C)c1C	76.6	> 100	> 100	52.5	> 100	> 100	> 100	> 100	> 100	96.5	> 100	> 100	100	98	94.8	33.7	80.4	74.2	69.2	25.3	growth at 0.1 µM (NCI-H226 [14]): 88.9%; growth at 1 µM (NCI-H226 [15]): 77.5%; growth at 10 µM (NCI-H226 [16]): 72.8%; growth at 100 µM (NCI-H226 [17]): 49.1%; growth at 0.1 µM (MDA-MB-435 [18]): 100%; growth at 1 µM (MDA-MB-435 [19]): 100%; growth at 10 µM (MDA-MB-435 [20]): 100%; growth at 100 µM (MDA-MB-435 [21]): 77.9%; activity at 0.25 h, 0.01 µM (CYP1A1 [22]): 99.3%; activity at 0.25 h, 0.1 µM (CYP1A1 [23]): 98.4%; activity at 0.25 h, 1 µM (CYP1A1 [24]): 96.7%; activity at 0.25 h, 10 µM (CYP1A1 [25]): 96.7%; activity at 0.25 h, 50 µM (CYP1A1 [26]): 101%; activity at 0.25 h, 100 µM (CYP1A1 [27]): 103%; inhibition (INH) (Cytochrome P450 1A1 [28]): Not Active

Source: ChEMBL document CHEMBL5257023, “Identification of leads for antiproliferative activity on MDA-MB-435 human breast cancer cells through pharmacophore and CYP1A1-mediated metabolism” (Eur J Med Chem, 2016)
